Experimental findings from patent US12018096B2, “Potent peptide inhibitors of protein aggregation” (COUNCIL OF SCIENTIFIC & INDUSTRIAL RESEARCH, priority 2017, dated 2024) are described below.

“Also recorded” adds a separate entry of the source. No end group written: not given here.

Assay [1] relates to Rat phaeochromocytoma (PC12) cells. Briefly: MTT assay with PC12 cells. In kind it is cell-based. How it is done: MTT ((3-(4,5-Dimethylthiazol-2-yl)-2,5-diphenyltetrazolium bromide)) cell toxicity experiments were performed using Rat phaeochromocytoma (PC12) neuronal-like cells to assess toxicity of α-syn and the protective effects of the Pep.2 and CycPep.2 generated in this study. MTT assay (FIG. 5) was performed with PC12 cells incubated with α-syn fibrillation end products in presence and absence of peptides. […] However, with similar concentration of α-syn, the presence of Pep.2 and CycPep.2 improved cellular viability by 30% and >99% respectively.
MTT experiments were performed using Rat phaeochromocytoma (PC12) cells to assess cytotoxic effect of α-syn. Inhibition of PC12 cell redox activity is specific and early indicator of cell death. In MTT assay, water soluble MTT dye (3-(4, 5-dimethylthiazol-2-yl)-2,5-diphenyltetrazolium bromide) (#M2003 Sigma-Aldrich) is converted to formazan, and the conversion is monitored via absorbance measurement at 570 nm. The conversion of the MTT dye to formazan is dependent of redox status of the cell and thus the change in absorbance can be used as an indicator of the cellular viability in the assay.
PC12 cells were maintained in growth media RPMI 1640 supplemented with 10% horse serum, 5% fetal bovine serum, and antibiotics penicillin and streptomycin. […] The absorbance was measured at 570 nm using a multimode plate reader (TECAN infinite M200 PRO). […]

For a further assay, the target named is T1, α-syn (Homo sapiens, UniProt P37840).
T1 construct: His6 (N); made in house; host or cells: E. coli Rossetta (DE3), pET29a based expression vector
Briefly: In vitro fibrillation assay (Thioflavin T fluorescence). The assay is classed as biochemical. Particulars: α-syn 400 μM, purified peptide at equimolar concentration, 37° C., 900 rpm. How it is done:
ThT is a fluorescent dye which is known to bind specifically to […] rich fibrils, and such binding further increases its fluorescence intensity. The fibrillation assay was carried out with α-syn in the presence and absence of above identified interacting phages.
The N-terminal His6-tagged human wild-type α-syn was expressed in E. coli Rossetta (DE3) (#70954 Novagen) using pET29a based expression vector. After IPTG induction bacterial cell pellets were harvested by centrifugation and resuspended in 10 mM Tris-HCl, pH 8.0, 1 mM EDTA, 1 mM Pierce protease inhibitor cocktail. […] Briefly, cell lysis was carried out by sonication, lysate was boiled at 95° C. for 30 minutes, followed by centrifugation at 10,000×g for 30 minutes at 4° C. […] Protein was quantitated using BCA protein estimation kit as per manufacturer's protocol (#23227 Thermo Scientific).
Thioflavin T (ThT) (4 mM) was added to 400 μM of purified α-syn with and without phages (10^11) or purified peptides at equimolar concentration in a 96 microwell plate. The plate was incubated at 37° C. with a shaking speed of 900 rpm in linear mode in a multimode plate reader (TECAN infinite M200 PRO). Fluorescence kinetics was measured after every 15 minutes with emission wavelength of 482 nm upon excitation at 442 nm. […]

Regarding “Pep.2: SEQ ID NO 2; parent peptide identified from phage display against α-syn (Ac-SACNHHHHLHCGG; not fully specified; cysteine pairing not given here)”, in assay [1] (10 μM α-syn with peptide in equimolar ratio, 24 hours), the “α-syn associated toxicity in PC12 cells (absorbance at 570 nm)” value was “reduced α-syn associated toxicity”. For the same substance, the “improved cellular viability in presence of α-syn” value in assay [1] (PC12 cells, α-syn fibrillation end products with peptide in equimolar ratio, 24 h, α-syn alone gives loss of viability by about 50%) came to 30%. As for “Pep.2d: SEQ ID NO 1; truncated derivative of Pep.2 (HHHH; Sequence retrieved through Sequence logo)”, the “inhibition of α-syn fibrillation (ThT fluorescence)” value with α-syn was “inhibits α-syn fibrillation; also recorded: able to reduce α-syn fibrillation comparable with Pep.2”.
